Results on 6 molecules are retold here after patent publication US20090105278A1, “Selective inhibitors of human corticosteroid syntheses” (Universitat Des Saarlandes, priority 2004, published 2009).

The target in one series is T1, human CYP11B2 (Homo sapiens, UniProt P19099).
T1 sequence (P19099 25-503): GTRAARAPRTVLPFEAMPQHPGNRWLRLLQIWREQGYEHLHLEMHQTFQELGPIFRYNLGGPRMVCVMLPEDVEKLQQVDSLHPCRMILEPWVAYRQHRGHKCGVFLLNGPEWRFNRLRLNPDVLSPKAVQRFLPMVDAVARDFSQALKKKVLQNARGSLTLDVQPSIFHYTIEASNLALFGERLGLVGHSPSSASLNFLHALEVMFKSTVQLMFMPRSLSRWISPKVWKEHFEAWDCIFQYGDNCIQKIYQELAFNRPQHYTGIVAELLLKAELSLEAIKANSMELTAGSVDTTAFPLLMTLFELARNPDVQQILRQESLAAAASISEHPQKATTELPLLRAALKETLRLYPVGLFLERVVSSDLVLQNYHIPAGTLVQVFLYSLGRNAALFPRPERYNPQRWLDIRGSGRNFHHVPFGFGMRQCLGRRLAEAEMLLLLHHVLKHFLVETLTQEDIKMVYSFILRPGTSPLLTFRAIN
Put plainly: Screening test in transgenic fission yeast (S. pombe PE1) expressing human CYP11B2. The series is classed as cell-based. Also noted: expressed in transfected cells. The settings on record: S. pombe cells which express human CYP11B2, deoxycorticosterone substrate 100 nM, inhibitor 500 nM; for inhibition at 0.5 µM: read-out: % Inhibition human hCYP11B2. The procedure: 492.5 μl of this cell suspension was admixed with 5 μl of inhibitor solution (50 μM of the compound to be tested in ethanol or DMSO) and incubated at 32° C. for 15 min. Controls were admixed with 5 μl of ethanol. […] The test was quenched by extracting the sample with 500 μl of EtOAc. After centrifugation (10,000 g, 2 min), the EtOAc phase was removed and evaporated to dryness. […] The reaction of the substrate to form corticosterone was analyzed by HPTLC (see below).
The quantification of the spots for the substrate deoxycorticosterone and the products corticosterone (and, if detectable, 18-hydroxycorticosterone and aldosterone) was effected with the related evaluation program AIDA. […] The calculation of the conversion rate was effected according to equation 1.
The plate was developed twice with the mobile solvent chloroform:methanol:water (300:20:1). Unlabeled 11-deoxycorticosterone and corticosterone were applied as a reference for the CYP11B1 reaction. For the CYP11B2 reaction, 11-deoxycorticosterone, corticosterone, 18-hydroxycorticosterone and aldosterone were used as references. The detection of the unlabeled references was effected at 260 nm. Subsequently, imaging plates (BAS MS2340, for ^14C samples, Raytest, Straubenhardt, Germany) were exposed to the HPTLC plates for 48 h. The imaging plates were scanned with the phosphoimager system Fuji FLA 3000 (Raytest, Straubenhardt, Germany), and the steroids were quantified.

A further series deals with T2, human CYP17 (Homo sapiens, UniProt P05093).
T2 construct: made in house; host or cells: E. coli pJL17/OR (membrane fraction)
T2 sequence (P05093 1-508): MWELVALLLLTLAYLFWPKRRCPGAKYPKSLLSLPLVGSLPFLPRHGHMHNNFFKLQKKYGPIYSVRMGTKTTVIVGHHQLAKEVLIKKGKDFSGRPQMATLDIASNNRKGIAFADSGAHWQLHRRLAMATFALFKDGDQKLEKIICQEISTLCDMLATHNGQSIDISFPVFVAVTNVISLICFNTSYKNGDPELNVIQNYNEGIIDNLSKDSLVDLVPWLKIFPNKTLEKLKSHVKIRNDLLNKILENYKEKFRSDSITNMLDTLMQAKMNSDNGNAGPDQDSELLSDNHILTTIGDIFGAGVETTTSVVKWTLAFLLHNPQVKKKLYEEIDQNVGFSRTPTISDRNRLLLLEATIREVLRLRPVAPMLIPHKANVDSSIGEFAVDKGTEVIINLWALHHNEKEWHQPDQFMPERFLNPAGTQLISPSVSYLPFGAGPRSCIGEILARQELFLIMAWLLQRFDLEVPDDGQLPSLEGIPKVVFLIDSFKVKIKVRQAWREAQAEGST
The series is described as follows: Percent inhibition of CYP17 (membrane fraction of E. coli pJL17/OR). It is filed as biochemical. The settings on record: for inhibition at 2.5 µM: read-out: % Inhibition human CYP17. As to the method: The recombinantly altered E. coli strain pJL17/OR, in which human CYP17 and rat NADPH-P450-reductase were coexpressed, was grown and stored according to the method of Ehmer et al. (Ehmer, P. B. et al., J. Steroid Biochem. Mol. Biol. 75: 57-63 (2000)). For isolating the membrane fraction, 5 ml of the bacterial cell suspension with an OD578 of 50 was washed with phosphate buffer (0.05 M; pH 7.4; 1 mM MgCl2; 0.1 mM EDTA and 0.1 mM DTT). The bacteria were removed by centrifugation and resuspended in 10 ml of ice cold TES buffer (0.1 M tris-acetate; pH 7.8; 0.5 mM EDTA; 0.5 M sucrose). Four milligrams of lysozyme in 10 ml of ice cold water was added to obtain a final concentration of 0.2 mg/ml. This was followed by incubation for 30 minutes under continued shaking on ice. The spheroblasts were obtained by a renewed centrifugation step at 12,000 g for 10 min and again resuspended in 3 ml of ice cold phosphate buffer (composition see above, additionally 0.5 mM PMSF).
After freezing and thawing, the cells were lysed on ice with an ultrasonic disintegrator. The whole cells and the cell debris were centrifuged off at 3000 g for 7 min. The supernatant was again centrifuged at 50,000 g for 20 min at 4° C. A membrane pellet sedimented and was resuspended in 2 ml of phosphate buffer (composition see above) with […] by means of an Ultra-Turrax mixer. […] Aliquots with an approximate protein concentration of 5 mg/ml were stored at −70° C. until use.
Control incubations were performed in parallel with 5 μl DMSO without urea. The reaction was started by adding 50 μl of a membrane suspension diluted 1 to 5 in phosphate buffer (0.8 to 1 mg of protein per ml). After thoroughly mixing the components, the mixture was incubated at 37° C. for 30 min.
The steroids were extracted with 1 ml of EtOAc. […] After the centrifugation, 800 μl of the organic phase was removed, placed into a new vessel and evaporated to dryness. The samples were dissolved in 50 μl of a water-methanol mixture (1:1) and analyzed by HPLC. The substrate conversion was calculated from the ratio of the areas of the product peaks (17α-hydroxyprogesterone and 16α-hydroxyprogesterone) to that of the substrate peak. The activity of the inhibitors was calculated from the reduced substrate conversion after the addition of inhibitors in accordance with the following formula: […]

The next series has as its target T3, bovine adrenal CYP11B (Bos taurus, UniProt P15150).
T3 sequence (P15150 25-503): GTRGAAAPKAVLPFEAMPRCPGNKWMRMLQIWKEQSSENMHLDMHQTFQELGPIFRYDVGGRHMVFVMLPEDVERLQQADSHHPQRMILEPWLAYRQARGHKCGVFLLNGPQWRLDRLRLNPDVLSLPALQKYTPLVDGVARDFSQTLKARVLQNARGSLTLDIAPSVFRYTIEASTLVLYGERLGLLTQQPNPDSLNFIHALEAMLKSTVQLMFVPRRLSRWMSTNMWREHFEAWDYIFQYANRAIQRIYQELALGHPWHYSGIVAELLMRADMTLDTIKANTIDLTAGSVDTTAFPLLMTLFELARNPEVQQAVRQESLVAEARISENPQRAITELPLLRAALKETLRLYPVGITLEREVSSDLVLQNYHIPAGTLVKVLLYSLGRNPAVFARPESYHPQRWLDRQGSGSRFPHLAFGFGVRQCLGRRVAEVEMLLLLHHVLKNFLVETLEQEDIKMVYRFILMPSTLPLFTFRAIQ
Put plainly: Percent inhibition of bovine CYP11B (adrenal mitochondria). To be noted: corticosterone substrate 200 μM, inhibitor 1 μM; for inhibition at 1 µM: read-out: % Inhibition bovine bCYP11B, bovine adrenal mitochondria, 1 mg/ml protein; for % Inhibition bovine bCYP11B: bovine adrenal mitochondria, 1 mg/ml protein.

Another series addresses T4, CYP11B1 in NCI-H295R (Homo sapiens, UniProt P15538).
T4 sequence (P15538 25-503): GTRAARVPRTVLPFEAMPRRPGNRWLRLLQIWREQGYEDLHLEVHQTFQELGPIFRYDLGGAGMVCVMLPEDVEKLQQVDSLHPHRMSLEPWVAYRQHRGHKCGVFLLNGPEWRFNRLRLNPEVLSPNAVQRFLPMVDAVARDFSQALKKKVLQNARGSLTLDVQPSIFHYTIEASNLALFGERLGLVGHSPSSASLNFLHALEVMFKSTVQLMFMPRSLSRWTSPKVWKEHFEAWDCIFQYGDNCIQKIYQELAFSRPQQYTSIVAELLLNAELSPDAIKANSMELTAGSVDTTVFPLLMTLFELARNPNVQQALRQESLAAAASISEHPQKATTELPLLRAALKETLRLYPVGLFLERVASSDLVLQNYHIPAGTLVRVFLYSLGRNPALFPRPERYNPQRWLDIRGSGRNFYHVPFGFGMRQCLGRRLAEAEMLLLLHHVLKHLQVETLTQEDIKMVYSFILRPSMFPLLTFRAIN
Put plainly: cell-based. The settings on record: read-out: NCI-H295R CYP11B1 RSS % inhibition. The procedure: For testing inhibitors, a preincubation for one hour was performed first, followed by starting the enzyme reactions by adding substrate (500 nM).
A) Seeding: The cell lines were grown and passaged until a confluent cell lawn had formed. By tryptic treatment, the cell material of at least two culture dishes was obtained, and the number of cells determined by means of a CASY TT cell counter (150 μl capillary). […] With the cell material of two confluently grown culture dishes, two 24-well plates could be coated. After 24 hours, the cells had grown on, and after another 24 hours' stimulation phase with a solution containing potassium ions (final concentration: 20 mM KCl), could be employed for the test.
Of this solution, 5 μl each was added to the samples.
Then, the 24-well plate was stored in a CO2 incubator at 37° C. and […]. The incubation time was 3 hours when deoxycorticosterone was used as the substrate, 24 Hours for corticosterone, and 48 hours for deoxycortisol.
Test stop: After elapse of the incubation times, the plates were briefly swung, and then the content of the wells was removed quantitatively if possible and inactivated by mixing with 1000 μl of dichloromethane in a 2 ml Eppendorf vessel. After 10 minutes of shaking, it was centrifuged for phase separation, and the […], organic phase was transferred into a 1.5 ml Eppendorf vessel. […]

A further series concerns ACTH-stimulated rats. To be noted: Hausler et al. 1989; cited from earlier work.
[1] abbreviates: E. coli which expresses human CYP17, 5 mg/ml protein, progesterone substrate 2.5 μM, inhibitor 2.5 μM.

Like-named read-outs stand apart in the source and are kept apart here.

For the molecule `Fc1ccc2c(c1)CC/C2=C\c1cnc[nH]1` [Compound 47a, 5-[(E)-(5-Fluoro-2,3-dihydro-1H-indene-1-ylidenemethyl]-1H-imidazolium chloride], the inhibition at 0.5 µM at human CYP11B2 stood at 59%. At human CYP17 (setting [1]), the inhibition at 2.5 µM is 16%. Further, the inhibition at 1 µM at bovine adrenal CYP11B is 67%.

Molecule `N#Cc1ccc2c(c1)CC/C2=C\c1cnc[nH]1.O=C(O)C(=O)O` [Compound 45a, (1E)-1-(1H-Imidazole-5-ylmethylene)indane-5-carbonitrile oxalate] registered a melting point of 217 °C. Besides, the inhibition at 0.5 µM on human CYP11B2 was 49%. The inhibition at 2.5 µM on human CYP17 (setting [1]) came out at 21%. In addition, the “% Inhibition bovine bCYP11B” value on bovine adrenal CYP11B (oxalate) was 81%. Moreover, the inhibition at 1 µM at bovine adrenal CYP11B is approximately 90%.

With `N#Cc1ccc2c(c1)CCC/C2=C/c1cnc[nH]1.O=C(O)C(=O)O` [Compound 44b, (5Z)-5-(1H-Imidazole-5-ylmethylene)-5,6,7,8-tetrahydronaphthalene-2-carbonitrile oxalate], the melting point amounted to 206 °C. The inhibition at 0.5 µM on human CYP11B2 came out at 54%. Besides, the inhibition at 2.5 µM on human CYP17 (setting [1]) stood at 4%. Further, at bovine adrenal CYP11B (oxalate), the “% Inhibition bovine bCYP11B” value came to 97%. Also, the inhibition at 1 µM on bovine adrenal CYP11B is approximately 90%.

For “5-[(Z)-(5-Fluoro-2,3-dihydro-1H-indene-1-ylidene)methyl]-1H-imidazolium oxalate [Compound 47b]”, the “% Inhibition human hCYP11B2” value on human CYP11B2 came out at 58%. For the same molecule, on human CYP17 (setting [1]), the “% Inhibition human CYP17” value worked out at 11%. For the same molecule, at bovine adrenal CYP11B, the “% Inhibition bovine bCYP11B” value is 64%.

Molecule `N#Cc1ccc2c(c1)CC/C2=C/c1cnc[nH]1.O=C(O)C(=O)O` [Compound 45b, (1Z)-1-(1H-Imidazole-5-ylmethylene)indane-5-carbonitrile oxalate] had a melting point of 207 °C. The inhibition at 0.5 µM at human CYP11B2 was 65%. Also, the inhibition at 2.5 µM on human CYP17 (setting [1]) is 4%. In addition, the “% Inhibition bovine bCYP11B” value at bovine adrenal CYP11B (oxalate) came to 100%. Further, the inhibition at 1 µM on bovine adrenal CYP11B is approximately 90%.

In the case of `N#Cc1ccc(C2CCCc3cncn32)cc1` (stereo not drawn) [Fadrozole, 4-(5,6,7,8-tetrahydroimidazo[1,5-a]pyridine-5-yl)benzonitrile, reference compound], the inhibition at 2.5 µM at CYP11B1 in NCI-H295R stood at 92%; on human CYP17, 7%. In the series with ACTH-stimulated rats, the “Aldosterone and corticosterone levels” value is “lowers the aldosterone and corticosterone levels”.

In general, melting point refers to the temperature of the solid-liquid transition.
